Among the data in patent US9512111B2, “N-sulfonylated tetrahydroquinolines and related bicyclic compounds for inhibition of RORγ activity and the treatment of disease” (Lycera Corporation, priority 2010, dated 2016) are IC50 values, retold here.

Molecules are shown by their SMILES.

The target of the assay is T1, RORγ-LBD (Homo sapiens, UniProt P51449).
T1 construct: HIS-tagged RORγ-LBD was recombinantly expressed in SF9 cells; made in house; host or cells: SF9 cells (baculovirus); unpurified lysate
T1 sequence (P51449 269-508 limits assumed): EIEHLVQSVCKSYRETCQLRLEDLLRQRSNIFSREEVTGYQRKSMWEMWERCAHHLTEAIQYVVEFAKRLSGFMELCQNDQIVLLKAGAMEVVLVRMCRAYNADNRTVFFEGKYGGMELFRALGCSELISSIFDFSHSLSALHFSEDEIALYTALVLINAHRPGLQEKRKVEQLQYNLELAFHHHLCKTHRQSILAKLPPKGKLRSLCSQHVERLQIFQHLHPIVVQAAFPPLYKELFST
Description: RORγ-Ligand Binding Domain TR-FRET Assay. Type of assay: biochemical. As to the method: HIS-tagged RORγ-LBD was recombinantly expressed in SF9 cells using a baculovirus expression system. The protein was not purified. Cells were lysed and the lysate was used as a source for RORγ-LBD for the assay. A 1:80 dilution of RORγ-LBD lysate in assay buffer (25 mM HEPES pH 7.0, 100 mM NaCl, 0.01% Tween, 0.1% BSA) was prepared and 5 μL was added to each well (RORγ-LBD final concentration ˜10 nM). Control wells received lysate from SF9 cells not expressing RORγ-LBD.
Compounds to be tested were diluted to 100× final test concentration in DMSO and further diluted to 4× final test concentration using assay buffer to provide the test compound mixture. An aliquot (5 μL) of the test compound mixture was added to each well.
A 4× stock of biotinylated-LXXLL peptide from SRC1-2 (Biotin-[…]) was prepared in assay buffer and a 5 μL aliquot added to each well (450 nM final concentration). A 4× solution of europium tagged anti-HIS antibody (2 nM final concentration) and APC conjugated streptavidin (60 nM final concentration) were prepared and a 5 μL aliquot added to each well.
The final assay mixture was incubated for 4 hours to overnight, and the fluorescence signal was measured on an Envision plate reader: (Excitation filter=340 nm; APC emission=665 nm; Europium emission=615 nm; dichroic mirror=D400/D630; delay time=100 μs, integration time=200 μs).
IC50 values for test compounds were calculated from the quotient of the fluorescence signal at 665 nm divided by the fluorescence signal at 615 nm using GraphPad Prism software.
(TR-FRET usually uses a lanthanide donor and a delayed reading to cut background.)

For orientation: IC50 means the midpoint of a concentration-inhibition curve. A higher IC50 goes with a need for much substance. As to `N#Cc1cccc(S(=O)(=O)N2C[C@@H](CO)Oc3ccc(NC(=O)Cc4ccc(Cl)cc4)cc32)c1` [VI-56], the half-inhibitory concentration (IC50) (benzoxazines, Table 9) was less than 15 µM. For the compound `O=C(Nc1ccc2cnn(S(=O)(=O)c3cccc(C(F)(F)F)c3)c2c1)c1c(F)cccc1F` [Compound V-64], where the note is “Table 8, indazoles”, the IC50 is less than 15 µM. Still for that read-out and setting: the same measure for `Cc1nn(C(F)F)cc1S(=O)(=O)n1ncc2ccc(NC(=O)c3c(Cl)cccc3Cl)cc21` [Compound V-65]: less than 15 µM; for `Cc1cccc(S(=O)(=O)n2ncc3ccc(NC(=O)c4c(F)cccc4F)cc32)c1` [Compound V-60]: less than 15 µM. Still for that read-out and setting: under `O=C(Nc1ccc2cnn(S(=O)(=O)Cc3cc(C(F)(F)F)cc(C(F)(F)F)c3)c2c1)c1c(F)cccc1Cl` [Compound V-93] stands less than 15 µM; under `COc1ccc(C)cc1S(=O)(=O)n1ncc2ccc(NC(=O)c3c(F)cccc3Cl)cc21` [Compound V-78], less than 15 µM. The same measure, in the same setting: under `COc1cccc(S(=O)(=O)n2ncc3ccc(NC(=O)c4c(F)cccc4Cl)cc32)c1` [Compound V-148] stands less than 15 µM; under `O=C(Nc1ccc2cnn(S(=O)(=O)c3cccc(OC(F)F)c3)c2c1)c1c(Cl)cccc1Cl` [Compound V-68], less than 15 µM.

The compound `COc1ccc(S(=O)(=O)n2ncc3ccc(NC(=O)c4c(F)cccc4Cl)cc32)cc1F` [Compound V-164] gave an IC50 (Table 8, indazoles) of less than 15 µM. Under “Table 8, indazoles”, `O=C(Nc1ccc2cnn(S(=O)(=O)c3cccc(OC(F)F)c3)c2c1)c1c(F)cccc1F` [Compound V-58] showed a half-inhibitory concentration (IC50) of less than 15 µM. On to `O=C(Nc1ccc2cnn(S(=O)(=O)c3cccc(OC(F)F)c3)c2c1)c1c(F)cccc1Cl` [Compound V-85], for which, for the setting “Table 8, indazoles”, the half-maximal inhibitory concentration (IC50) is less than 15 µM. On the same count and under the same terms, under `O=C(Nc1ccc2cnn(S(=O)(=O)c3cccc(OC(F)(F)F)c3)c2c1)c1c(Cl)cccc1C(F)(F)F` [Compound V-41] stands less than 15 µM; under `O=C(Nc1ccc2cnn(S(=O)(=O)c3cccc(OC(F)(F)F)c3)c2c1)c1c(F)cccc1F` [Compound V-63], less than 15 µM. `Cc1c(F)cccc1S(=O)(=O)n1ncc2ccc(NC(=O)c3c(F)cccc3Cl)cc21` [Compound V-102] gave a 50% inhibitory concentration (IC50) (Table 8, indazoles) of less than 15 µM. In turn, `O=C(Cc1ccc(Cl)cc1)Nc1ccc2c(c1)N(S(=O)(=O)c1ccc(F)cc1)C[C@H](CO)O2` [VI-77] came in with an IC50 (benzoxazines, Table 9) of less than 15 µM. On the same count and under the same terms, under `NCC1CN(S(=O)(=O)c2ccc(F)cc2)c2cc(NC(=O)c3c(F)cccc3Cl)ccc2O1` (stereo not drawn) [VI-31] stands less than 15 µM. Same read-out and setting: the same measure for `CNCC1CN(S(=O)(=O)c2ccc(F)cc2)c2cc(NC(=O)c3c(F)cccc3Cl)ccc2O1` (stereo not drawn) [Compound 14]: less than 15 µM. With `O=C(Nc1ccc2cnn(S(=O)(=O)c3cccc(OC(F)F)c3)c2c1)c1c(F)cccc1C(F)(F)F` [Compound V-45], the half-inhibitory concentration (IC50) (Table 8, indazoles) was less than 15 µM. `N#Cc1cccc(S(=O)(=O)N2C[C@@H](CO)Oc3ccc(NC(=O)c4c(F)cccc4F)cc32)c1` [VI-60] returned an IC50 (benzoxazines, Table 9) of less than 15 µM. The same measure, in the same setting: the same measure for `C[C@H](O)[C@H]1CN(S(=O)(=O)c2ccc(F)cc2)c2cc(NC(=O)c3c(F)cccc3Cl)ccc2O1` [VI-23]: less than 15 µM; for `O=C(Nc1ccc2c(c1)N(S(=O)(=O)c1ccc(F)cc1)CC(C(F)(F)F)O2)c1c(F)cccc1Cl` (stereo not drawn) [VI-117]: less than 15 µM; for `C[C@H](O)[C@H]1CN(S(=O)(=O)c2ccc(F)cc2)c2cc(NC(=O)c3c(Cl)cccc3C(F)(F)F)ccc2O1` [VI-16]: less than 15 µM. Where the note is “Table 8, indazoles”, `O=C(Nc1ccc2cnn(S(=O)(=O)c3cccc(C(F)(F)F)c3)c2c1)c1c(Cl)cccc1Cl` [Compound V-75] came in with an IC50 of less than 15 µM. On the same count and under the same terms, under `Cc1nn(C(F)F)cc1S(=O)(=O)n1ncc2ccc(NC(=O)c3c(F)cccc3C(F)(F)F)cc21` [Compound V-43] stands less than 15 µM; under `O=C(Nc1ccc2cnn(S(=O)(=O)Cc3ccc(F)cc3)c2c1)c1c(F)cccc1Cl` [Compound V-160], less than 15 µM; under `COc1ccc(S(=O)(=O)n2ncc3ccc(NC(=O)c4c(F)cccc4Cl)cc32)cc1` [Compound V-157], less than 15 µM. On the same count and under the same terms, the same measure for `Cc1cc(C)cc(S(=O)(=O)n2ncc3ccc(NC(=O)c4c(F)cccc4Cl)cc32)c1` [Compound V-123]: less than 15 µM. For the setting “Table 8, indazoles”, `Cc1ccccc1S(=O)(=O)n1ncc2ccc(NC(=O)c3c(F)cccc3Cl)cc21` [Compound V-129] displayed a half-maximal inhibitory concentration (IC50) of less than 15 µM.

Under “Table 8, indazoles”, `O=C(Nc1ccc2cnn(S(=O)(=O)Cc3ccc(C(F)(F)F)cc3)c2c1)c1c(F)cccc1C(F)(F)F` [Compound V-47] displayed an IC50 of less than 15 µM. The same measure, in the same setting: under `C=Cc1nn(S(=O)(=O)c2cccc(C(F)(F)F)c2)c2cc(NC(=O)c3c(F)cccc3Cl)ccc12` [Compound 9, 2-Chloro-6-fluoro-N-[1-(3-trifluoromethylbenzenesulfonyl)-3-vinyl-1H-indazol-6-yl]benzamide] stands less than 15 µM; under `Cc1cccc(S(=O)(=O)n2ncc3ccc(NC(=O)c4c(Cl)cccc4C(F)(F)F)cc32)c1` [Compound V-37], less than 15 µM. In the case of `C[C@H](C(=O)Nc1ccc2c(c1)N(S(=O)(=O)c1ccc(F)cc1)C[C@H](C)O2)c1ccccc1` [VI-133], the IC50 (benzoxazines, Table 9) was less than 15 µM. `Cc1cccc(S(=O)(=O)n2ncc3ccc(NC(=O)Cc4ccc(F)c(F)c4)cc32)c1` [Compound V-20] had a 50% inhibitory concentration (IC50) (Table 8, indazoles) of less than 15 µM. Same read-out and setting: the same measure for `O=C(Nc1ccc2cnn(S(=O)(=O)Cc3cccc(C(F)(F)F)c3)c2c1)c1c(F)cccc1Cl` [Compound V-137]: less than 15 µM. The same measure, in the same setting: the same measure for `CNC(=O)Nc1ccc(S(=O)(=O)n2ncc3ccc(NC(=O)c4c(F)cccc4Cl)cc32)cc1Cl` [Compound V-133]: less than 15 µM. For the compound `O=C(Nc1ccc2cnn(S(=O)(=O)Cc3ccc(Cl)c(Cl)c3)c2c1)c1c(F)cccc1Cl` [Compound V-139], the IC50 (Table 8, indazoles) is less than 15 µM.

For the setting “Table 8, indazoles”, `CC(=O)c1cccc(S(=O)(=O)n2ncc3ccc(NC(=O)Cc4ccc(Cl)cc4)cc32)c1` [Compound V-30] registered an IC50 of less than 15 µM. Still for that read-out and setting: the same measure for `CC(=O)c1cccc(S(=O)(=O)n2ncc3ccc(NC(=O)Cc4ccc(F)cc4)cc32)c1` [Compound V-24]: less than 15 µM; for `O=C(Nc1ccc2cnn(S(=O)(=O)c3ccc(F)c(F)c3)c2c1)c1c(F)cccc1Cl` [Compound V-170]: less than 15 µM; for `Cc1ccc(S(=O)(=O)n2ncc3ccc(NC(=O)c4c(F)cccc4Cl)cc32)c(C)c1` [Compound V-103]: less than 15 µM. As for `CC(=O)c1cccc(S(=O)(=O)n2ncc3ccc(NC(=O)c4c(Cl)cccc4C(F)(F)F)cc32)c1` [Compound V-36], the IC50 (Table 8, indazoles) is less than 15 µM. In the case of `C[C@H]1CN(S(=O)(=O)c2cccc(C#N)c2)c2cc(NC(=O)c3c(F)cccc3C(F)(F)F)ccc2O1` [VI-4], where the note is “benzoxazines, Table 9”, the IC50 is less than 15 µM. The same measure, in the same setting: under `O=C(Cc1ccc(Cl)cc1)Nc1ccc2c(c1)N(S(=O)(=O)c1ccc(F)c(F)c1)C[C@@H](CO)O2` [VI-71] stands less than 15 µM. `COc1cccc(S(=O)(=O)n2ncc3ccc(NC(=O)c4c(F)cccc4F)cc32)c1` [Compound V-62] came in with a 50% inhibitory concentration (IC50) (Table 8, indazoles) of less than 15 µM. On the same count and under the same terms, under `COc1ccc(S(=O)(=O)n2ncc3ccc(NC(=O)c4c(F)cccc4Cl)cc32)cn1` [Compound V-162] stands less than 15 µM. Same read-out and setting: the same measure for `Cc1ccc(C)c(S(=O)(=O)n2ncc3ccc(NC(=O)c4c(F)cccc4Cl)cc32)c1` [Compound V-117]: less than 15 µM. `N#Cc1cccc(S(=O)(=O)N2C[C@H](CO)Oc3ccc(NC(=O)c4c(F)cccc4F)cc32)c1` [VI-65] gave a 50% inhibitory concentration (IC50) (benzoxazines, Table 9) of less than 15 µM. In the case of `CC(=O)c1cccc(S(=O)(=O)n2ncc3ccc(NC(=O)c4c(F)cccc4C(F)(F)F)cc32)c1` [Compound V-12], the half-inhibitory concentration (IC50) (Table 8, indazoles) was less than 15 µM. On the same count and under the same terms, the same measure for `Cc1ccc(S(=O)(=O)n2ncc3ccc(NC(=O)c4c(F)cccc4Cl)cc32)cc1` [Compound V-158]: less than 15 µM; for `Cc1nn(C(F)F)cc1S(=O)(=O)n1ncc2ccc(NC(=O)Cc3ccc(F)c(F)c3)cc21` [Compound V-17]: less than 15 µM; for `CC(C)(C)c1cccc(S(=O)(=O)n2ncc3ccc(NC(=O)c4c(F)cccc4F)cc32)c1` [Compound V-57]: less than 15 µM. Same read-out and setting: under `Cn1cnc(S(=O)(=O)n2ncc3ccc(NC(=O)c4c(F)cccc4Cl)cc32)c1` [Compound V-147] stands less than 15 µM; under `O=C(Nc1ccc2cnn(S(=O)(=O)c3ccccc3C(F)(F)F)c2c1)c1c(F)cccc1Cl` [Compound V-132], less than 15 µM; under `O=C(Nc1ccc2cnn(S(=O)(=O)c3cccc(Cl)c3F)c2c1)c1c(F)cccc1Cl` [Compound V-167], less than 15 µM. Same read-out and setting: under `CC(=O)c1cccc(S(=O)(=O)n2ncc3ccc(NC(=O)c4c(Cl)cccc4Cl)cc32)c1` [Compound V-69] stands less than 15 µM. In the case of `O=C(Nc1ccc2cnn(S(=O)(=O)c3cc(Cl)ccc3F)c2c1)c1c(F)cccc1Cl` [Compound V-169], the IC50 (Table 8, indazoles) is less than 15 µM. The same measure, in the same setting: under `O=C(Nc1ccc2cnn(S(=O)(=O)C3CCOCC3)c2c1)c1c(F)cccc1Cl` [Compound V-79] stands less than 15 µM.
